Each compound was assayed on ATF4 translation (assay: ATF4 Cell Based Assay (ATF4 reporter assay, NanoLuc luciferase fused to ATF4 5'-UTR, thapsigargin-induced stress)). Settings: SH-SY5Y-ATF4-NanoLuc cells, 200 nM thapsigargin, overnight (typically 19 hours); average of a set of two or more experimental runs; read-out: average ATF4 pathway inhibitory activity IC50.
From the text: The ATF4 reporter assay measures the effect of thapsigargin-induced cellular stress on ATF4 expression. For this reporter assay, a stable cell line was created by transfecting SH-SY5Y cells with a plasmid containing the NanoLuc® luciferase gene fused to the 5′-UTR of ATF4, under the control of the CMV promoter. The ATF4 5′-UTR contains two open reading frames which mediate the cellular stress-dependent translation of the reporter gene. Clones stably expressing the reporter construct were isolated and selected based on the luminescence response to thapsigargin and inhibition of this signal by test compounds. Briefly, SH-SY5Y-ATF4-NanoLuc cells were challenged with thapsigargin to determine the stress effect with or without test compounds. Cells were propagated in DMEM/F12 growth media containing 10% FBS (Invitrogen 10999-141) and 0.5 mg/mL geneticin (Corning 30-234-CR). Aliquots of cells were cryopreserved in dialyzed FBS containing 10% DMSO.
Test compounds were prepared in neat DMSO at a concentration of 10 mM. Assay plates were prepared by adding 250 nL of compound stock solution to test wells in a 384-well white tissue culture-treated plate (Greiner 781073). For inhibition curves, compounds were diluted using a three-fold serial dilution and tested at 11 concentrations (10 μM-0.17 nM).
Aliquots of frozen cells were thawed with a 37C water bath. The cells were washed using DMEM/F12 (1:1) (1×) (Gibco 11039-021). The cells were re-suspended in the DMEM/F12 and the suspension was counted. A final suspension of 7.5e5 cells/ml was prepared.
A volume of 20 uL of cell suspension was added to compound plates (15K cells/well). Cells were incubated for 1 hour at 37° C. A volume of 5 μL of 1 uM Thapsigargin solution was added to each well, resulting in a final concentration of 200 nM. Assay plates were then incubated at 37 C overnight, typically for 19 hours.
The measurement of luciferase produced by the ATF4 constructs was measured using Nano-Glo Luciferase Assay reagent, Promega N1150. (The components of the Promega kit are: Nano-Glo® Luciferase Assay Substrate, N113C, Nano-Glo® Luciferase Assay Buffer, N1128.) The buffer is brought to room temperature, and a solution of 50:1 buffer:substrate were prepared. The cell plates were equilibrated to room temperature. A volume of 20 microliters/well of the mixed Nano-Glo reagent were dispensed into assay and control wells. The plates were read on a Viewlux plate reader.

IC50	SMILES
25 nM	O=C(COc1ccc(Cl)cc1)NC12CC(COC(=O)Nc3ccc(Cl)cc3)(C1)C2 [Example 1, (3-(2-(4-Chlorophenoxy)acetamido)bicyclo[1.1.1]pentan-1-yl)methyl (4-chlorophenyl)carbamate]
25 nM	O=C(COc1ccc(Cl)c(F)c1)NC12CC(COC(=O)Nc3ccc(Cl)cc3)(C1)C2 [Example 3, (3-(2-(4-chloro-3-fluorophenoxy)acetamido)bicyclo[1.1.1]pentan-1-yl)methyl (4-chlorophenyl)carbamate]
10 nM	O=C(COc1ccc(Cl)cc1)NC12CC(CNC(=O)Nc3ccc(Cl)cc3)(C1)C2 [Example 4, 2-(4-Chlorophenoxy)-N-(3-((3-(4-chlorophenyl)ureido)methyl)bicyclo[1.1.1]pentan-1-yl)acetamide]
126 nM	O=C(COc1ccc(Cl)cc1)NC12CC(CNC(=S)Nc3ccc(Cl)cc3)(C1)C2 [Example 6a, 2-(4-chlorophenoxy)-N-(3-((3-(4-chlorophenyl)thioureido)methyl)bicyclo[1.1.1]pentan-1-yl)acetamide]
79 nM	O=C(COc1ccc(Cl)c(C(F)(F)F)c1)NC12CC(COC(=O)Nc3ccc(Cl)c(F)c3)(C1)C2 [Example 8a, (3-(2-(4-chloro-3-(trifluoromethyl)phenoxy)acetamido)bicyclo[1.1.1]pentan-1-yl)methyl (4-chloro-3-fluorophenyl)carbamate]
25 nM	O=C(COc1ccc(Cl)c(F)c1)NC12CC(COC(=O)Nc3ccc(Cl)c(Cl)c3)(C1)C2 [Example 10, (3-(2-(4-chloro-3-fluorophenoxy)acetamido)bicyclo [1.1.1]pentan-1-yl)methyl (3,4-dichlorophenyl) carbamate]
32 nM	O=C(COc1ccc(Cl)c(Cl)c1)NC12CC(COC(=O)Nc3ccc(Cl)cc3)(C1)C2 [Example 12, (3-(2-(3,4-dichlorophenoxy)acetamido)bicyclo [1.1.1]pentan-1-yl)methyl (4-chlorophenyl) carbamate]
79 nM	O=C(COc1ccc(F)cc1)NC12CC(COC(=O)Nc3ccc(Cl)c(F)c3)(C1)C2 [Example 14, (3-(2-(4-fluorophenoxy)acetamido)bicyclo [1.1.1]pentan-1-yl)methyl (4-chloro-3-fluorophenyl) carbamate]
158 nM	O=C(COc1ccc(F)c(F)c1)NC12CC(COC(=O)Nc3ccc(F)c(F)c3)(C1)C2 [Example 16, (3-(2-(3,4-difluorophenoxy)acetamido)bicyclo [1.1.1]pentan-1-yl)methyl (3,4-difluorophenyl) carbamate]
1260 nM	O=C(CNc1ccc(Cl)cc1)NC12CC(COC(=O)Nc3ccc(Cl)c(F)c3)(C1)C2 [Example 18, (3-(2-((4-chlorophenyl)amino)acetamido)bicyclo [1.1.1]pentan-1-yl) methyl (4-chloro-3-fluorophenyl carbamate]
158 nM	O=C(Nc1ccc(Cl)c(F)c1)OCC12CC(NC(=O)c3ccc4c(c3)OC(F)(F)O4)(C1)C2 [Example 19, (3-(2,2-difluorobenzo[d] [1,3]dioxole-5-carboxamido)bicyclo[1.1.1]pentan-1-yl)methyl (4-chloro-3-fluorophenyl) carbamate]
6 nM	O=C(COc1ccc(Cl)cc1)NC12CC(CNC(=O)Nc3ccc(Cl)c(Cl)c3)(C1)C2 [Example 22, 2-(4-chlorophenoxy)-N-(3-((3-(3,4-dichlorophenyl)ureido)methyl)bicyclo[1.1.1]pentan-1-yl)acetamide]
8 nM	O=C(COc1ccc(Cl)c(F)c1)NC12CC(CNC(=O)Nc3ccc(Cl)c(Cl)c3)(C1)C2 [Example 23, 2-(4-chloro-3-fluorophenoxy)-N-(3-((3-(3,4-dichlorophenyl)ureido)methyl)bicyclo[1.1.1]pentan-1-yl)acetamide]
80 nM	O=C(COc1ccc(Cl)c(F)c1)NC12CCC(COC(=O)Nc3ccc(Cl)c(F)c3)(C1)C2 [Example 26, (4-(2-(4-chloro-3-fluorophenoxy)acetamido)bicyclo[2.1.1]hexan-1-yl)methyl (4-chloro-3-fluorophenyl) carbamate]
